Assay results as given in US9901573B2, “Compositions, methods, and kits for regulating energy metabolism” (NuSirt Sciences, Inc., priority 2012, dated 2018).

Tests used:
[1] = Circulating level achieved by dietary dosing; format: in vivo, human
Excerpt: In some embodiments, the dosing of leucine, any metabolites of leucine, and/or vitamin B6 can be designed to achieve a specified physiological concentration or circulating level of leucine, metabolites of leucine and/or vitamin B6. The physiological concentration can be a circulating level as measured in the blood stream of a subject. The subject can be a human or an animal. A selected dosing can be altered based on the characteristics of the subject, such as weight, rate of energy metabolism, genetics, ethnicity, height, or any other characteristic. The amount of leucine in a unit dose can be such that the circulating level of leucine in a subject is about or greater than about 0.25 mM, 0.5 mM, 0.75 mM, or 1 mM. A dosing of about 1,125 mg leucine can achieve a circulating level of leucine in a subject that is about 0.5 mM. A dosing of about 300 mg leucine can achieve a circulating level of leucine in a subject that is about 0.25 mM. A dosing of about 15 mg of vitamin B6 can achieve a circulating level of vitamin B6 that is about 100 nM. A dosing of about 7.5 mg of vitamin B6 can achieve a circulating level of vitamin B6 that is about 50 nM. The amount of vitamin B6 in a unit dose can be such that the circulating level of vitamin B6 in a subject is about or greater than about 10, 25, 50, 100, 150, or 200 nM. […]

3T3-L1 adipocytes [2] = test: Glucose utilization (extracellular acidification) in adipocytes; format: cell-based; conditions: FIG. 10
Experimental: (§1) Cell Culture: C2C12 and 3T3-L1 preadipocytes (American Type Culture Collection) were plated at a density of 8000 cells/cm^2 (10 cm^2 dish) and grown in Dulbecco's modified eagle's medium (DMEM) containing 10% fetal bovine serum (FBS), and antibiotics (growth medium) at 37° C. in 5% CO2. Confluent 3T3-L1 preadipocytes were induced to differentiate with a standard differentiation medium consisting of DMEM medium supplemented with 10% FBS, 250 nM dexamethasone, 0.5 mM 3-Isobutyl-1-methylxanthine (IBMX) and 1% penicillin-streptomycin. Preadipocytes were maintained in this differentiation medium for 3 days and subsequently cultured in growth medium. Cultures were re-fed every 2-3 days to allow >90% cells to reach fully differentiation before conducting chemical treatment. […]
(§2) Glucose Utilization: In the absence of a fatty acid source and oxidative metabolism, glycolysis and subsequent lactate production results in extracellular acidification, which was also measured using a Seahorse Bioscience XF24 analyzer. […] Data for each sample were normalized to the pre-glucose injection baseline for that sample and expressed as % change from that baseline. The area under of the curve of extracellular acidification change from baseline for each sample was the calculated and used for subsequent analysis.

Phospho-AMPKα (Thr172) = Phospho-AMPKα (Thr172) Western blot in myotubes; format: cell-based; conditions: C2C12 myotubes, FIG. 11
Experimental: Cell Culture: C2C12 and 3T3-L1 preadipocytes (American Type Culture Collection) were plated at a density of 8000 cells/cm^2 (10 cm^2 dish) and grown in Dulbecco's modified eagle's medium (DMEM) containing 10% fetal bovine serum (FBS), and antibiotics (growth medium) at 37° C. in 5% CO2. Confluent 3T3-L1 preadipocytes were induced to differentiate with a standard differentiation medium consisting of DMEM medium supplemented with 10% FBS, 250 nM dexamethasone, 0.5 mM 3-Isobutyl-1-methylxanthine (IBMX) and 1% penicillin-streptomycin. Preadipocytes were maintained in this differentiation medium for 3 days and subsequently cultured in growth medium. Cultures were re-fed every 2-3 days to allow >90% cells to reach fully differentiation before conducting chemical treatment. For differentiation of C2C12 cells, cells were grown to 100% confluence, transferred to differentiation medium (DMEM with 2% horse serum and 1% penicillin-streptomycin), and fed with fresh differentiation medium every day until myotubes were fully formed (3 days).
(§3) Western blot: The Phospho-AMPKα (Thr172)- and Sirt1 (mouse specific)-antibody was obtained from Cell Signaling (Danvers, Mass.). C2C12 myotubes were treated as indicated in results and the cellular fractions were prepared using standard methods. Protein was measured by BCA kit (Thermo Scientific). […] Visualization and chemiluminescent detection was conducted using BioRad ChemiDoc instrumentation and software (Bio-Rad Laboratories, Hercules, Calif.) and band intensity was assessed using Image Lab 4.0 (Bio-Rad Laboratories, Hercules, Calif.), with correction for background and loading controls. P-AMPK was detected at 61-66 kDA and Sirt1 was detected at 104-115 kDA.

Sirt1 = Sirt1 protein expression Western blot in myotubes; format: cell-based, mouse; conditions: C2C12 myotubes, FIG. 12
Experimental: as §1
as §3, with “C2C12 myotubes were treated as indicated in results and the cellular fractions were prepared using standard methods.” left out

3T3-L1 adipocytes [3] = test: Fatty acid oxidation (O2 consumption response to palmitate) in adipocytes; format: cell-based; conditions: FIG. 8, % change from control
Experimental: as §1
Fatty acid oxidation: Cellular oxygen consumption was measured using a Seahorse Bioscience XF24 analyzer (Seahorse Bioscience, Billerica, Mass.) in 24-well plates at 37° C., as described by Feige et al (1) with slight modifications. […] Data for each sample were normalized to the pre-palmitate injection baseline for that sample and expressed as % change from that baseline. […] The area under of the curve of O2 consumption change from baseline for each sample was then calculated and used for subsequent analysis.

C2C12 myotubes = test: Glucose utilization (extracellular acidification) in myotubes; format: cell-based; conditions: FIG. 9
Experimental: as §1, §2

circulating level of leucine ([1]; dosing of about 300 mg leucine): about 0.25 mM
circulating level of leucine ([1]; dosing of about 1,125 mg leucine): about 0.5 mM
SMILES: CC(C)C[C@H](N)C(=O)O [Leucine, leucine]
increase in glucose utilization (3T3-L1 adipocytes [2]): no independent significant effect
AMPK activation (Phosphorylated AMPK Thr172), increase (Phospho-AMPKα (Thr172)): Neither treatment with leucine, valine, nor B6 alone exerted any significant effect
Sirt1 protein levels, increase (Sirt1): unaffected
increase in fatty acid oxidation (3T3-L1 adipocytes [3]): 181%
increase in glucose utilization (C2C12 myotubes): no independent significant effect
